Test results: patent US8012466B2, “Immunogenic compositions for activating γδ T cells” (priority 2008, dated 2011)
“Also recorded” adds a separate entry of the source.

Key:
Vγ9/Vδ2 = details: cited from earlier work
[1] = tested on: Vγ2Vδ2 TCR transfectant, DBS43; experiment: IL-2 release by Vγ2Vδ2 TCR transfectant DBS43; type: cell-based; details: unpublished data
Vγ2Vδ2 T cells [2] = experiment: In vitro HMBPP response of rhesus monkey PBMC; type: cell-based; details: PBMC stimulated with 100 nM HMBPP
Source text: FIG. 7. Characteristics of rhesus monkey Vγ2Vδ2 T cells. (A). Large in vitro HMBPP responses by Vγ2Vδ2 T cells from most rhesus monkeys. […] (B). Uniform memory subset distribution of rhesus monkey Vγ2Vδ2 T cells. PBMC from 22 monkeys were stained for Vδ2, […], and […]. Vδ2^+ cells were divided in 4 groups based on their expression of CD28 and CD27.
Memory subset distribution and HMBPP response of rhesus monkey Vγ2Vδ2 T cells—In preparation for in vivo immunization of rhesus monkey, we screened 33 monkeys for their ability to respond to HMBPP in vitro, γδ T cells levels, V gene expression, and memory subset distribution. […] Like human Vγ2Vδ2 T cells, monkey Vγ2Vδ2 T cells also could be divided into 4 subsets based on expression of CD28 and CD27 (TEarly=central memory=CD28^+27^+, TEarly CD27−=CD28^+27^−, TIntermediate=CD28^−27^+, and TLate CD45RA+=CD28^−27^−). However, unlike human donors, there were very few monkeys with a predominance of the TLate RA subset. Moreover, whereas Vγ2Vδ2 T cells constituted 73% of human adult γδ T cells, Vγ2Vδ2 T cells constituted only 29% of monkey γδ T cells consistent with our earlier study. […]

Vγ2Vδ2 T cells [3] = experiment: Immunization of rhesus monkeys with zoledronate and HMBPP plus sc IL-2; type: in vivo, rhesus monkey; details: for in vitro reactivity of PBMC to HMBPP after immunization: PBMC before and ~2 weeks after each immunization, cultured with HMBPP 9 days; for outcome of repeated immunization in vivo: zoledronate 0.06 mg/kg sc or iv twice, then HMBPP 70 mg/kg iv, sc IL-2

| Compound | return of expansion to baseline (Vγ9/Vδ2; cynomolgus monkey, in vivo) [days] | expansion of Vγ9/Vδ2 (Vγ9/Vδ2; first and successive infusions) | IL-2 release [1] | monkeys with expansion to >40% (Vγ2Vδ2 T cells [2]) | in vitro reactivity of PBMC to HMBPP after immunization (Vγ2Vδ2 T cells [3]) | outcome of repeated immunization in vivo (Vγ2Vδ2 T cells [3]) |
| --- | --- | --- | --- | --- | --- | --- |
| CC(O)(CBr)CCOP(=O)(O)OP(=O)(O)O (centres unmarked) [BrHPP, bromohydrin pyrophosphate] | 10 to 15 | transiently expand; also recorded: less vigorous expansions |  |  |  |  |
| C/C(=C\COP(=O)(O)OP(=O)(O)O)CO [HMBPP, (E)-4-hydroxy-3-methyl-but-2-enyl pyrophosphate] |  |  | release IL-2 in response to HMBPP | 32/33 | leads to loss of in vitro reactivity to HMBPP | leads to immune exhaustion |
| O=P(O)(O)C(O)(Cn1ccnc1)P(=O)(O)O [zoledronate] |  |  |  |  | leads to loss of in vitro reactivity to HMBPP | loss of in vivo (FIG. 8) and in vitro proliferation by Vγ2Vδ2 T cells to antigenic stimulation; also recorded: leads to immune exhaustion |
